Target: T1, human renal renin (Homo sapiens, UniProt P00797)
T1 construct: human renal renin, free from acid proteolytic activity; from tissue; host or cells: human kidney (from the word 'renal')
T1 sequence (P00797 67-406): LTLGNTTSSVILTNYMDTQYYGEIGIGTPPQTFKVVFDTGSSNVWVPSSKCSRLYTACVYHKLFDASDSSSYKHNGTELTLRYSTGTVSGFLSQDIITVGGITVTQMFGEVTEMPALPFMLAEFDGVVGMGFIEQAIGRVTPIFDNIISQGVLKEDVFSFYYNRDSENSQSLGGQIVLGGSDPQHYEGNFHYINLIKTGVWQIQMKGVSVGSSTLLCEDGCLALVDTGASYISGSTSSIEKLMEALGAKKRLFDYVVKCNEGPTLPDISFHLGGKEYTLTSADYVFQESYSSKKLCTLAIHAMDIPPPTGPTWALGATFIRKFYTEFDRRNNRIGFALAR
Experiment: Inhibition of human renal renin in vitro (angiotensin I formed, measured by radioimmunoassay)
Assay type: biochemical
Conditions: human renal renin with renin substrate (human angiotensinogen), 37° C., pH 6.0
Description: At the end of the incubation, the amount of angiotensin I formed is measured by radioimmunoassay and the molar concentration required to cause 50% inhibition, expressed as the IC50 is calculated.

| SMILES | IC50 |
| --- | --- |
| CC[C@H]1CO[C@@H]1[C@H](O)[C@H](CC1CCCCC1)NC(=O)C(Cc1cscn1)NC(=O)[C@@H](CC(=O)N1CCN(C)CC1)Cc1ccccc1 (stereo partly drawn) [Example 70, (2R)-2-Benzyl-3-[(4-methylpiperazin-1-yl)carbonyl]propionyl-(4-thiazolyl)alanine Amide of (1R,2S,2'S,3'S)-2-Amino-3-cyclohexyl-1-[3'-(ethyl)oxetan-2'-yl]-1-(hydroxy)propane] | 200 pM |
| CC[C@H]1CO[C@@H]1[C@H](O)[C@H](CC1CCCCC1)NC(=O)[C@H](Cc1cscn1)NC(=O)[C@@H](CC(=O)N(C)CCc1ccccn1)Cc1ccccc1 [Example 71, (2R)-2-Benzyl-3-[(2-pyridin-2-ylethyl)methylaminocarbonyl]propionyl-(4-thiazolyl)alanine Amide of (1R,2S,2'S,3'S)-2-Amino-3-cyclohexyl-1-[3'-(ethyl)oxetan-2'-yl]-1-(hydroxy)propane] | 270 pM |
| CCCC[C@H](O[C@@H](Cc1ccccc1)C(=O)N1CCC(OCOC)CC1)C(=O)N[C@@H](CC1CCCCC1)[C@@H](O)[C@H]1OC[C@@H]1C(C)C [Example 72, (2S)-[(1S)-[(Methoxymethoxy)piperidin-1-yl]carbonyl-2-phenylethoxy]hexanoicAcid Amide of (1R,2S,2'S,3'S)-2-Amino-3-cyclohexyl-1-[3'-(isopropyl)oxetan-2'-yl]-1-(hydroxy)propane] | 800 pM |
| CC[C@H]1CO[C@@H]1[C@H](O)[C@H](CC1CCCCC1)NC(=O)C(Cc1cscn1)NC(=O)[C@H](Cc1ccccc1)Cn1ccnc1 (stereo partly drawn) [Example 76, (2R)-2-Benzyl-3-(imidazol-1-yl)propionyl-(4-thiazolyl)alanine Amide of (1R,2S,2'S,3'S)-1-Amino-3-cyclohexyl-1-[3'-(ethyl)oxetan-2'-yl]-1-(hydroxy)propane] | 280 pM |
| CCCC[C@H](NC(=O)[C@@H](CC(=O)N1CCN(C)CC1)Cc1ccccc1)C(=O)N[C@@H](CC1CCCCC1)[C@@H](O)[C@H]1OC[C@@H]1CC [Example 155, (2R)-2-Benzyl-3-(4-methylpiperazin-1-ylcarbonyl)propionyl(nor)Leucine Amide of (1R,2S,2'S,3'S)-2-Amino-3-cyclohexyl-1-[3'-(ethyl)oxetan-2'-yl]-1-(hydroxy)propane] | 370 pM |
| CC[C@H]1CO[C@@H]1[C@H](O)[C@H](CC1CCCCC1)NC(=O)[C@H](CC(C)C)NC(=O)[C@@H](CC(=O)N1CCN(C)CC1)Cc1ccccc1 [Example 163, (2R)-2-Benzyl-3-(4-methylpiperazin-1-ylcarbonyl)propionyl-leucine Amide of (1R,2S,2'S,3'S)-2-Amino-3-cyclohexyl-1-[3'-(ethyl)oxetan-2'-yl]-1-(hydroxy)propane] | 510 pM |
| CCOC(=O)NC(Cc1ccccc1)C(=O)NC(CC(C)C)C(=O)N[C@@H](CC1CCCCC1)[C@@H](O)[C@H]1OC[C@@H]1CC (stereo partly drawn) [Example 164, Ethoxycarbonyl-Phe-Leu Amide of (1R,2S,2'S,3'S)-2-Amino-3-cyclohexyl-1-[3'-(ethyl)oxetan-2'-yl]-1-(hydroxy)propane] | 460 pM |
| CC[C@H]1CO[C@@H]1[C@H](O)[C@H](CC(C)C)NC(=O)C(Cc1cnc[nH]1)NC(=O)C(Cc1ccccc1)NC(=O)OC(C)(C)C (stereo partly drawn) [Example 171, Boc-Phe-His Amide of (1R,2S,2'S,3'S)-2-Amino-1-[3'-(ethyl)oxetan-2'-yl]-1-hydroxy-4-(methyl)pentane] | 500 pM |
| CC[C@H]1CO[C@@H]1[C@H](O)[C@H](CC(C)C)NC(=O)C(Cc1cscn1)NC(=O)[C@H](Cc1ccccc1)CS(=O)(=O)N1CCN(C)CC1 (stereo partly drawn) [Example 178, (2S) 2-Benzyl-3-(1-methyl-piperazin-4-ylsulfonyl)propionyl-(4-thiazolyl)alanineAmide of (1R,2S,2'S,3'S)-2-Amido-1-[3'-(ethyl)oxetan-2'-yl]-1-hydroxy-4-(methyl)pentane] | 380 pM |
| CC[C@H]1CO[C@@H]1[C@H](O)[C@H](CC(C)C)NC(=O)C(Cc1cscn1)NC(=O)[C@H](Cc1ccccc1)Cn1ccnc1 (stereo partly drawn) [Example 181, (2R)-2-Benzyl-3-(imidazol-1-yl)propionyl-(4-thiazolyl)alanine Amide of (1R,2S,2S',3'S)-2-Amino-1-(3'-(ethyl)oxetan-2'-yl]-1-hydroxy-4-(methyl)pentane] | 3700 pM |
| CC[C@H]1CO[C@@H]1[C@H](O)[C@H](CC1CCCCC1)NC(=O)[C@H](CC(C)C)NC(=O)[C@H](Cc1ccccc1)Cn1ccnc1 [Example 182, (2R)-2-Benzyl-3-(imidazol-1-yl)propionyl-Leucine Amide of (1R,2S,2'S,3'S)-2-Amino-3-cyclohexyl-1-[3'-(ethyl)oxetan-2'-yl]-1-(hydroxy)propane] | 650 pM |
| CC[C@H]1CO[C@@H]1[C@H](O)[C@H](CC1CCCCC1)NC(=O)[C@H](CC(C)C)NC(=O)C(Cc1ccccc1)Cc1ccccc1 [Example 183, Dibenzylacetyl-Leucine Amide of (1R,2S,2'S,3'S)-2-Amino-3-cyclohexyl-1-[3'-(ethyl)oxetan-2'-yl]-1-(hydroxy)propane] | 1200 pM |
| CCCCC(NC(=O)CCc1ccccc1)C(=O)N[C@@H](CC1CCCCC1)[C@@H](O)[C@H]1OC[C@@H]1CC (stereo partly drawn) [Example 186, Dihydrocinnamoyl-(nor)Leucine Amide of (1R,2S,2'S,3'S)-2-Amino-3-cyclohexyl-1-[3'-(ethyl)oxetan-2'-yl]-1-(hydroxy)propane] | 3300 pM |
| CCCC[C@H](NC(=O)C(Cc1ccccc1)Cc1ccccc1)C(=O)N[C@@H](CC1CCCCC1)[C@@H](O)[C@H]1OC[C@@H]1CC [Example 188, Dibenzylacetyl-(nor)Leucine Amide of (1R,2S,2'S,3'S)-2-Amino-3-cyclohexyl-1-[3'-(ethyl)oxetan-2'-yl]-1-(hydroxy)propane] | 680 pM |
| CCCC[C@H](NC(=O)[C@H](Cc1ccccc1)Cn1ccnc1)C(=O)N[C@@H](CC1CCCCC1)[C@@H](O)[C@H]1OC[C@@H]1CC [Example 189, (2R)-2-Benzyl-3-(imidazol-1-yl)propionyl-(nor)Leucine Amide of (1R,2S,2'S,3'S)-2-Amino-3-cyclohexyl-1-[3'-(ethyl)oxetan-2'-yl]-1-(hydroxy)propane] | 460 pM |
| CC[C@H]1CO[C@@H]1[C@H](O)[C@H](CC1CCCCC1)NC(=O)C(C)NC(=O)[C@H](Cc1ccccc1)CS(=O)(=O)N1CCN(C)CC1 (stereo partly drawn) [Example 191, (2S) 2-Benzyl-3-(1-methyl-piperazin-4-ylsulfonyl)propionylalanine Amide of (1R,2S,2'S,3'S)-2-Amino-3-cyclohexyl-1-[3'-(ethyl)oxetan-2'-yl]-1-(hydroxy)propane] | 580 pM |
| CC[C@H]1CO[C@@H]1[C@H](O)[C@H](CC1CCCCC1)NC(=O)C(C)NC(=O)[C@H](Cc1ccccc1)Cn1ccnc1 (stereo partly drawn) [Example 192, (2R)-2-Benzyl-3-(imidazol-1-yl)propionyl-alanine Acid of (1R,2S,2'S,3'S)-2-Amino-3-cyclohexyl-1-[3'-(ethyl)oxetan-2'-yl]-1-(hydroxy)propane] | 3400 pM |

— patent US5258362A, “Renin inhibiting compounds” (Abbott Laboratories, priority 1992, dated 1993)
